For assay [1], the system named is EVSA-T (human breast carcinoma). Kind of assay: Anti-proliferative activity, Alamar Blue assay, EVSA-T. The assay is classed as cell-based. In general terms: Resazurin is reduced to fluorescent resorufin, in cell work by metabolically active cells.
Assay [2] has as its target T1, BIR3 domain of human XIAP (Homo sapiens, UniProt P98170).
T1 construct: BIR3 domain of human XIAP (residues 252-350) fused to a His-tag; His-tag (cleaved yes); made in house; host or cells: Escherichia coli
Nature of the assay: XIAP in vitro competitive displacement binding assay (fluorescence polarization). The conditions noted are these: for Xiap IC50 or PI μM (PI): 60 min, 0.04 µM.

Assay [3] concerns the target T2, BIR3 domain of human cIAP-1 (Homo sapiens, UniProt Q13490).
T2 construct: human cIAP-1 (residues 267-363) fused to a GST-tag; GST-tag (cleaved yes); made in house; host or cells: Escherichia coli
Nature of the assay: cIAP-1 in vitro competitive displacement binding assay (fluorescence polarization). Conditions: PI at […], 180 min, […]. Background: Polarisation of emitted light reports the rotation of a fluorescent probe.

The mark [4] stands for this setting: EVSA-T cells, 72 hours, Alamar Blue, hydrochloride, read-out: EVSA-T prolif.
Setting [5] is: plain number = IC50, average where more than one data point, read-out: Xiap IC50 or PI μM (IC50).
Setting [6] is: EVSA-T cells, 72 hours, Alamar Blue, dihydrochloride, read-out: EVSA-T prolif.

Structures can show the parent of a compound that is named as a salt. Where two headings read alike, the source gives them in different places.

T2 sequence (Q13490 267-363): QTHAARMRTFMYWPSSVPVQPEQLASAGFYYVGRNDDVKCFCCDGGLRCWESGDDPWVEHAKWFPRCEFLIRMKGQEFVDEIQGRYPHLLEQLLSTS
T1 sequence (P98170 252-350): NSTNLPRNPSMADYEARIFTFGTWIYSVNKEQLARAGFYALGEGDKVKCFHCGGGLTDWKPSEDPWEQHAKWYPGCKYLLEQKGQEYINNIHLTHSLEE

In the case of `C[C@@H]1CN(CC(=O)N2CC(C)(C)c3ncc(Cc4ccc(F)cc4)cc32)[C@@H](CN2CCOCC2C(F)(F)F)CN1` (single isomer, unassigned) [Example 27, 1-{6-[(4-Fluorophenyl)methyl]-3,3-dimethyl-1H,2H,3H-pyrrolo[3,2-b]pyridin-1-yl}-2-[(2R,5R)-5-methyl-2-{[3-([R or S]trifluoromethyl)morpholin-4-yl]methyl}piperazin-1-yl]ethan-1-one hydrochloride], in assay [1] (setting [4]), the EC50 is 15 nM. Further, the IC50 – broadly, the concentration needed to halve the response being measured – in assay [2] (setting [5]) worked out at 0.13 µM. Besides, the “cIAP1 IC50 or PI μM (PI)” value in assay [3] (hydrochloride) was 90%@0.012.
For the molecule `C[C@@H]1CN(CC(=O)N2CC(C)(C)c3ncc(C(O)c4cccc(F)c4F)cc32)[C@@H](CN2[C@H](C)COC[C@H]2C)CN1` (single isomer, unassigned) [Example 112, (R or S)-1-{6-[(2,3-Difluorophenyl)(hydroxy)meth-yl]-3,3-dimethyl-1H,2H,3H-pyrrolo[3,2-b]pyridin-1-yl}-2-[(2R,5R)-2-{[(3R,5R)-3,5-dimethylmorpholin-4-yl]methyl}-5-methylpiperazin-1-yl]ethan-1-one dihdrochloride], in assay [1] (EVSA-T cells, 72 hours, Alamar Blue, read-out: EVSA-T prolif), the EC50 came out at 20 nM. Besides, in assay [2] (PI at 0.04 μM), the “Xiap IC50 or PI μM (PI)” value is recorded as 47%@0.04. Further, in assay [3], the “cIAP1 IC50 or PI μM (PI)” value is given as 90%@0.012.
As for `COCC1(C)COCCN1C[C@H]1CN[C@H](C)CN1CC(=O)N1CC(C)(C)c2ncc(Cc3ccc(F)cc3)cc21` (single isomer, unassigned) [Example 100, dihydrochloride], the EC50 was 0.92 nM in assay [1] (setting [6]) and less than 1000 nM in assay [1] (Homo sapiens, EVSA-T, read-out: EC50 in EVSA-T cell line assays). Besides, in assay [2] (1 h, PI at 0.04 μM, read-out: Xiap IC50 or PI μM (PI)), the inhibition at 0.04 µM was found to be 56%. For the same molecule, the IC50 in assay [2] (or at least 50% inhibition of the activity at 0.1 μM, read-out: IC50 in the XIAP assay) is less than 0.1 µM. Besides, in assay [3] (dihydrochloride), the “cIAP1 IC50 or PI μM (PI)” value is given as 99%@0.012.
Regarding `C[C@@H]1CN(CC(=O)N2CC(C)(C)c3ncc(C(O)c4cccc(F)c4)cc32)[C@@H](CN2[C@H](C)COC[C@H]2C)CN1` (single isomer, unassigned) [Example 106, 2-[(2R,5R)-2-{[(3R,5R)-3,5-Dimethylmorpholin-4-yl]methyl}-5-methylpiperazin-1-yl]-1-{6-[(R or S)-(3-fluorophenyl)-(hydroxy)methyl]-3,3-dimethyl-1H,2H,3H-pyrrolo[3,2-b]pyridin-1-yl}ethan-1-one dihydrochloride], in assay [1] (setting [6]), the EC50 was 4.3 nM. Moreover, the “Xiap IC50 or PI μM (PI)” value in assay [2] (PI at 0.04 μM, dihydrochloride) turned out to be 42%@0.04. In assay [3] (dihydrochloride), the “cIAP1 IC50 or PI μM (PI)” value is recorded as 88%@0.012.
Turning to `C[C@@H]1CN(CC(=O)N2CC(C)(C)c3ncc(Cc4ccc(F)cc4)cc32)[C@@H](CN2CCCCC2C(F)(F)F)CN1` (single isomer, unassigned) [Example 26, 1-{6-[(4-Fluorophenyl)methyl]-3,3-dimethyl-1H,2H,3H-pyrrolo[3,2-b]pyridin-1-yl}-2-[(2R,5R)-5-methyl-2-{[2-([R or S]trifluoromethyl)piperidin-1-yl]methyl}piperazin-1-yl]ethan-1-one hydrochloride], the EC50 in assay [1] (setting [4]) came out at 120 nM. Further, the IC50 in assay [2] (setting [5]) was 0.21 µM. In addition, the “cIAP1 IC50 or PI μM (PI)” value in assay [3] (hydrochloride) amounted to 94%@0.012.

These data come from patent US9980973B2, “Bicyclic heterocycle compounds and their uses in therapy” (ASTEX THERAPEUTICS LIMITED, priority 2012, dated 2018).
